The values below come from patent US20090269365A1, “IMMUNOGENIC VACCINIA PEPTIDES AND METHODS OF USING SAME” (priority 2005, published 2009).

pEC50: −log10 of the molar value.

Holding throughout (assay type): cell-based, human
Experiment [1] relates to bulk vaccinia-specific CD8 CTL.
The test system of a further experiment is CD4+ T-cells. Conditions: humans, Example 2.
The test system of experiment [2] is bulk vaccinia-specific CD8 CTL. This is another data set of the same source.
Experiment [3] has as its system vaccinia-specific CD8 CTL clones. The following applies: read-out: EC50 in CTL assays.

As to WLKIKRDYL [A50R 395-403], in experiment [1], the “net ICC response (peptide minus DMSO)” value was roughly 1.55% and the “percentage of bulk CTL positive for IFN-γ by ICC” value worked out at 2.95%. In the case of TKTTSDYQDSDVSQ [A33R 160-173], in the experiment with CD4+ T-cells, the “CD4+ T-cell reactivity, in words” value was “epitope region has been further narrowed down”. For VWINNSWKF [D5R 349-357], the “IFN-γ ICC response relative to DMSO background, in words” value in experiment [1] is given as “detection of IFN-γ-bright cells at a level above the background”. Take EEQELLLLY [F3 41-49]: the “IFN-γ secretion by bulk CTL, in words” value in experiment [2] is “again detectable”. Moreover, the pEC50 in experiment [3] is roughly 8.00. For the sequence KIQNVIIDECY [L1R 127-137], the “CD4+ T-cell reactivity, in words” value in the experiment with CD4+ T-cells was “reacts with CD4+ T-cells”. For the sequence YEFRKVKSY [A3L 264-272], in experiment [1], the “IFN-γ ICC response relative to DMSO background, in words” value is “positive”. Further, in experiment [2], the “IFN-γ secretion by bulk CTL, in words” value is “positive”. Regarding NPITKTTSDYQDSDVSQEVR [A33R 157-176], in the experiment with CD4+ T-cells, the “CD4+ T-cell reactivity, in words” value is listed as “containing the epitope”.
